The record followed here is US6689343B1, “Hemostatic and acid etch compositions containing sucralose” (Ultradent Products, Inc., priority 2002, dated 2004).

Molecules are shown by their SMILES.

A short description of the data set: Storage stability of sucralose in the acidic composition. It counts as physicochemical. To be noted: highly acidic in water.

In the case of `OC[C@H]1O[C@H](O[C@]2(CCl)O[C@H](CCl)[C@@H](O)[C@@H]2O)[C@H](O)[C@@H](O)[C@H]1Cl` [sucralose, 1,6-dichloro-1,6-dideoxy-β-D-fructo-furanosyl-4-chloro-4-deoxy-α-D-galactopyranoside], the “stability in the presence of hemostatic or dental etching agents” value is listed as “stable”.
